PubChem BioAssay (NCI)
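Test compounds were applied to cells in 96-well plates for 48 hours at 5 doses. TGI: total growth inhibition.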

Tests used:
Test in all cases: inhibition of tumour cell growth, NCI panel, 48 h
786-0 renal = tested on: 786-0 renal
A498 renal = tested on: A498 renal
A549 NSCLC = tested on: A549 NSCLC
ACHN renal = tested on: ACHN renal
BT-549 breast = tested on: BT-549 breast
CAKI-1 renal = tested on: CAKI-1 renal
CCRF-CEM leukemia = tested on: CCRF-CEM leukemia
COLO 205 colon = tested on: COLO 205 colon
DU-145 prostate = tested on: DU-145 prostate
EKVX NSCLC = tested on: EKVX NSCLC
HCC-2998 colon = tested on: HCC-2998 colon
HCT-116 colon = tested on: HCT-116 colon
HCT-15 colon = tested on: HCT-15 colon
HL-60(TB) leukemia = tested on: HL-60(TB) leukemia
HOP-62 NSCLC = tested on: HOP-62 NSCLC
HOP-92 NSCLC = tested on: HOP-92 NSCLC
HS 578T breast = tested on: HS 578T breast
HT29 colon = tested on: HT29 colon
IGROV1 ovarian = tested on: IGROV1 ovarian
K-562 leukemia = tested on: K-562 leukemia
KM12 colon = tested on: KM12 colon
LOX IMVI melanoma = tested on: LOX IMVI melanoma
M14 melanoma = tested on: M14 melanoma
MCF7 breast = tested on: MCF7 breast
MDA-MB-231 breast = tested on: MDA-MB-231 breast
MDA-MB-435 = tested on: MDA-MB-435
MDA-N = tested on: MDA-N
MOLT-4 leukemia = tested on: MOLT-4 leukemia
NCI-H226 lung = tested on: NCI-H226 lung
NCI-H23 lung = tested on: NCI-H23 lung
NCI-H460 lung = tested on: NCI-H460 lung
NCI-H522 lung = tested on: NCI-H522 lung
NCI/ADR-RES ovarian = tested on: NCI/ADR-RES ovarian
OVCAR-3 ovarian = tested on: OVCAR-3 ovarian
OVCAR-4 ovarian = tested on: OVCAR-4 ovarian
OVCAR-8 ovarian = tested on: OVCAR-8 ovarian
PC-3 prostate = tested on: PC-3 prostate
RPMI-8226 leukemia = tested on: RPMI-8226 leukemia
SF-268 CNS = tested on: SF-268 CNS
SF-295 CNS = tested on: SF-295 CNS
SF-539 CNS = tested on: SF-539 CNS
SK-MEL-2 melanoma = tested on: SK-MEL-2 melanoma
SK-MEL-28 melanoma = tested on: SK-MEL-28 melanoma
SK-MEL-5 melanoma = tested on: SK-MEL-5 melanoma
SN12C renal = tested on: SN12C renal
SNB-19 CNS = tested on: SNB-19 CNS
SW-620 colon = tested on: SW-620 colon
T-47D breast = tested on: T-47D breast
TK-10 renal = tested on: TK-10 renal
U251 CNS = tested on: U251 CNS
UACC-257 melanoma = tested on: UACC-257 melanoma
UACC-62 melanoma = tested on: UACC-62 melanoma
UO-31 renal = tested on: UO-31 renal
MALME-3M melanoma = tested on: MALME-3M melanoma
OVCAR-5 ovarian = tested on: OVCAR-5 ovarian
RXF 393 renal = tested on: RXF 393 renal
SK-OV-3 ovarian = tested on: SK-OV-3 ovarian
SNB-75 CNS = tested on: SNB-75 CNS
SR leukemia = tested on: SR leukemia

Measured: TGI

O=C(CC(=O)Nc1cccc(C(=O)O)c1)Nc1cccc(C(=O)O)c1
not listed: MALME-3M melanoma | OVCAR-5 ovarian | RXF 393 renal | SK-OV-3 ovarian | SNB-75 CNS | SR leukemia
> 100 µM: all other assays above

Nc1nc(Cl)c(N)c(NC23CC4CC(CC(C4)C2)C3)n1
4.69 µM: ACHN renal
3.31 µM: MDA-N
4.26 µM: NCI-H522 lung
3.72 µM: SF-539 CNS
6.59 µM: OVCAR-8 ovarian
> 19.9 µM: HOP-92 NSCLC
3.06 µM: U251 CNS
3.13 µM: COLO 205 colon
3.82 µM: SK-MEL-5 melanoma
2.92 µM: HCT-116 colon
7.16 µM: UACC-257 melanoma
5.54 µM: TK-10 renal
4.3 µM: HOP-62 NSCLC
4.22 µM: NCI-H226 lung
2.97 µM: PC-3 prostate
3.32 µM: SN12C renal
5.36 µM: EKVX NSCLC
5 µM: CCRF-CEM leukemia
11.3 µM: SF-295 CNS
3.03 µM: 786-0 renal
3.84 µM: CAKI-1 renal
> 20.5 µM: SF-268 CNS
8.43 µM: NCI-H23 lung
13.3 µM: HCT-15 colon
3.64 µM: UACC-62 melanoma
3.61 µM: T-47D breast
2.94 µM: SW-620 colon
2.84 µM: OVCAR-5 ovarian
1.16 µM: SK-MEL-2 melanoma
17.4 µM: SK-OV-3 ovarian
> 100 µM: HS 578T breast | IGROV1 ovarian | LOX IMVI melanoma
10.1 µM: MALME-3M melanoma
6.87 µM: K-562 leukemia
> 22.2 µM: SR leukemia
3.02 µM: M14 melanoma
4.91 µM: SNB-75 CNS
7.89 µM: HCC-2998 colon
3.67 µM: KM12 colon
7.05 µM: DU-145 prostate
6.16 µM: A549 NSCLC
3.62 µM: OVCAR-3 ovarian
3.78 µM: MCF7 breast
4.21 µM: OVCAR-4 ovarian
3.55 µM: UO-31 renal
3.6 µM: SK-MEL-28 melanoma
3.83 µM: MDA-MB-231 breast
4.81 µM: MOLT-4 leukemia
17.7 µM: NCI-H460 lung
3.41 µM: MDA-MB-435
3.24 µM: RXF 393 renal
5.02 µM: RPMI-8226 leukemia
8.13 µM: A498 renal
3.42 µM: HT29 colon | SNB-19 CNS
6.76 µM: BT-549 breast

Cc1ccc(/C=N/n2c(=O)[nH]c3ccccc3c2=O)cc1
not listed: HCC-2998 colon | NCI-H522 lung | NCI/ADR-RES ovarian | OVCAR-4 ovarian | OVCAR-8 ovarian | MALME-3M melanoma | RXF 393 renal | SNB-75 CNS
> 100 µM: all other assays above

CCOC(=O)C1=CC(C)(C(=O)OCC)Nc2c(nc(OC)n(C)c2=O)N1 (stereo unspecified)
not listed: HL-60(TB) leukemia | UACC-62 melanoma | SR leukemia
> 10 µM: all other assays above

O=S1(=O)OCCOS(=O)(=O)C1F
not listed: A498 renal | HOP-92 NSCLC | IGROV1 ovarian | MDA-MB-231 breast | NCI-H460 lung
> 100 µM: all other assays above

C[C@@H]1C[C@H]2[C@@H]3CCC4=CC(=O)C=C[C@]4(C)[C@@]3(Cl)[C@@H](Cl)C[C@]2(C)[C@@]1(O)C(=O)COP(=O)(O)O
33.1 µM: SN12C renal
not listed: CCRF-CEM leukemia | HL-60(TB) leukemia | NCI-H460 lung | NCI/ADR-RES ovarian | SF-539 CNS
> 100 µM: all other assays above

CN(c1ccc(Cl)cc1)S(=O)(=O)c1ccc([N+](=O)[O-])cc1
not listed: A498 renal | HOP-92 NSCLC | SR leukemia
> 100 µM: all other assays above
